3 compounds from patent EP0967196B1, “Substituted 2-hydroxybenzophenones, preparation thereof, their use as fungicide and their fungicidal compositions” (BASF AKTIENGESELLSCHAFT, priority 1998, dated 1999) can be followed below.

Experiment [1] relates to Blumeria (Erysiphe) graminis DC. f.sp. tritici E. Marchal. Kind of experiment: Wheat Powdery Mildew (WPM) curative fungicidal activity, inoculation 3 days before spray application on wheat plants. Type of experiment: in vivo. More on the design: key to WPM 3 day curative Antisporulation effect: +++ = complete (no spore release); ++ = moderate; + = slight; o = none. As to conditions: for WPM 3 day curative % disease control / WPM 3 day curative Antisporulation effect: Comparison test (Table IV), 200 l/ha; for Emax at 0.2 ppm / Emax at 1 ppm / Emax at 5 ppm / Emax at 25 ppm / Emax at 125 ppm: Blumeria, 72 h, WPM 3 da C (3 day curative), wheat variety Kanzler, read-out: Disease control (% efficacy); for Emax at 0.2 ppm: rate 0.2 ppm; for Emax at 125 ppm: rate 125 ppm. The text has this: (§1) • Wheat Powdery Mildew (WPM): • HOST: Wheat (Triticum aestivum L.) variety Kanzler • PATHOGEN: Blumeria (Erysiphe) graminis DC. f.sp. tritici E. Marchal
(§2) • 1. Wheat seed (approximately 8-10/pot) is planted in 6 cm diameter plastic pots and maintained in the greenhouse. • 2. When the primary leaf (wheat) is fully expanded, formulated test compounds are sprayed with a single nozzle overhead track sprayer at a rate of 200 l/ha. Plants are then allowed to air-dry. • 3. Inoculation precedes treatment by 3 days in the case of curative evaluations and follows treatment by 4 or 5 days in case of residual evaluations. For inoculation, plants are set up on greenhouse benches with bottom watering mats and inoculated by dusting them with conidia from powdery mildew infected plants (stock cultures at an age of 10-14 days). Between inoculation and treatment for curative evaluations and between treatment and inoculation for residual evaluations, plants are maintained in the greenhouse with bottom watering. • 4. Disease on the primary leaf as percent leaf area with disease symptoms/signs is evaluated about 7 days after inoculation. In the case of wheat, the tips and bases of the leaves are excluded from the evaluation.
(§3) Percent disease control is then calculated by the following formula: % disease control = 100 -(% infection in treated plants)/(% infection in untreated plants)x 100 [formula]
(§4) • 1. Technical compounds are formulated in a solvent/surfactant system consisting of 5% acetone and 0.05% Tween 20 in deionized water. Compounds are dissolved in acetone prior to addition of the water; the Tween 20 can be added through either the acetone or the water. Dilutions are made using the solvent/surfactant system. Formulated compounds are prepared using deionized water. • 2. Two kinds of controls are included: • Plants treated with the solvent/surfactant solution and inoculated (Solvent Blank). • Untreated plants which are inoculated (Inoculated Control).
(§5) The fungicidal activity against wheat powdery mildew of the hydroxybenzophenones according to this invention has been compared with a fungicidal benzophenone known from EP 0 727 141 in the following table. Compounds applied to seedling wheat plants using a single-nozzle overhead track sprayer at an application rate of 200 l/ha.

Experiment [2] has the same test system. Put plainly: Wheat Powdery Mildew (WPM) residual fungicidal activity, inoculation 4 or 5 days after spray application on wheat plants. Type of experiment: in vivo. To be noted: for WPM 4 day residual % disease control: Comparison test (Table IV), 200 l/ha; for Emax at 0.2 ppm / Emax at 1 ppm / Emax at 5 ppm / Emax at 25 ppm / Emax at 125 ppm: Blumeria, WPM 4/5 da R (4/5 day residual), wheat variety Kanzler, read-out: Disease control (% efficacy); for Emax at 0.2 ppm: rate 0.2 ppm; for Emax at 125 ppm: rate 125 ppm.
Excerpt: as §1, §2, §3, §4
4/5 da R = 4/5 day residual Inoculation 4 or 5 days AFTER application
as §5

On to `CCCCOc1c(OC)c(OC)cc(C)c1C(=O)c1c(Cl)cccc1Cl` [standard, 2'-n-butyloxy-2,6-dichloro-3',4'-dimethoxy-6'-methylbenzophenone, reference compound], for which the “WPM 3 day curative % disease control” value in experiment [1] (rate 1 ppm) is listed as 0%; in experiment [1] (rate 5 ppm), 3%; in experiment [1] (rate 25 ppm), 6%. Also, the figures for the “WPM 3 day curative Antisporulation effect” value in experiment [1] (rate 1 ppm), in experiment [1] (rate 5 ppm) and in experiment [1] (rate 25 ppm) were 0, 0 and “+”, respectively. Further, the “WPM 4 day residual % disease control” value was determined as 15% in experiment [2] (rate 1 ppm), 47% in experiment [2] (rate 5 ppm) and 92% in experiment [2] (rate 25 ppm).

Regarding `COc1cc(C)c(C(=O)c2c(O)ccc(Br)c2C)c(OC)c1OC` [Example 2, 5-bromo-6,6'-dimethyl-2-hydroxy-2',3',4'-trimethoxybenzophenone], in experiment [1], the Emax at 0.2 ppm is 13% and the Emax at 125 ppm worked out at 59%. In experiment [1] (rate 1 ppm), the Emax at 1 ppm came to 23%, the “WPM 3 day curative % disease control” value worked out at 10% and the “WPM 3 day curative Antisporulation effect” value is recorded as “+”. Moreover, in experiment [1] (rate 5 ppm), the Emax at 5 ppm amounted to 37%, the “WPM 3 day curative % disease control” value is recorded as 22% and the “WPM 3 day curative Antisporulation effect” value is reported as “+”. Besides, in experiment [1] (rate 25 ppm), the Emax at 25 ppm was 53%, the “WPM 3 day curative % disease control” value was 40% and the “WPM 3 day curative Antisporulation effect” value was “+++”. Besides, in experiment [2], the Emax at 0.2 ppm was 86% and the Emax at 125 ppm came to 100%. Besides, in experiment [2] (rate 1 ppm), the Emax at 1 ppm came out at 98% and the “WPM 4 day residual % disease control” value came out at 52%. In experiment [2] (rate 5 ppm), the Emax at 5 ppm was found to be 100% and the “WPM 4 day residual % disease control” value worked out at 78%. In experiment [2] (rate 25 ppm), the Emax at 25 ppm is 100% and the “WPM 4 day residual % disease control” value is given as 100%.

Regarding `COc1cc(C)c(C(=O)c2c(OC(C)=O)ccc(Br)c2C)c(OC)c1OC` [Example 1, 2-acetoxy-5-bromo-6,6'-dimethyl-2',3',4'-trimethoxybenzophenone], the Emax at 0.2 ppm stood at 2% in experiment [1] and 53% in experiment [2]. For the same compound, the Emax at 1 ppm in experiment [1] (rate 1 ppm) amounted to 17%; in experiment [2] (rate 1 ppm) it was 84%. Moreover, the figures for the Emax at 5 ppm in experiment [1] (rate 5 ppm) and in experiment [2] (rate 5 ppm) were 33% and 98%, respectively. In addition, the values for the Emax at 25 ppm in experiment [1] (rate 25 ppm) and in experiment [2] (rate 25 ppm) were 49% and 100%, respectively. Besides, the Emax at 125 ppm is 55% in experiment [1] and 100% in experiment [2].
